Measured values taken from US12329780B2, “Acute and chronic mitochondrial electron transport chain dysfunction treatments and graphenic materials for use thereof” (WILLIAM MARSH RICE UNIVERSITY, priority 2017, dated 2025).

Columns and labels:
[1] = target: ferricytochrome C (CytCox) (Homo sapiens, UniProt P99999); assay: ETS kinetics: reduction of ferricytochrome C by NADH; format: biochemical; conditions: 4 mg/L catalyst, CytCox 40 μM, NADH 0-5 mM
[2] = Midpoint reduction potential; format: physicochemical
Text: PEG-HCCs and MB are electrochemically similar with respect to midpoint reduction potentials of +11 mV and ˜0 mV respectively, although PEG-HCCs have a much broader range. PEG-HCCs appear to have similar effects on the electron transport chain as described for MB.

[3] = system: bEnd0.3 murine cerebrovascular endothelial cells; assay: Hydrogen peroxide challenge assay in bEnd.3 cells (Calcein AM live cell counts); format: cell-based; conditions: MB 0, 5, 10 and 20 μM, with or without 100 μM H2O2
Procedure: The differential properties of MB and PEG-HCCs were tested by using a hydrogen peroxide challenge assay in cultured cells. Hydrogen peroxide exerts toxic effects on endothelial cells through at least four routes: hydroxyl and superoxide radical formation by reacting with reduced species, nitric oxide synthase (NOS) and NADPH oxidase (NOX) stimulation and uncoupling, modulation of mitochondrial permeability, and the Fenton reaction. This employs administering the test agent after the hydrogen peroxide since efficacy under post-injury conditions would be critical for clinical translation.
PEG-HCCs and MB were compared in two standard hydrogen peroxide challenge assays. In the first experiment, bEnd0.3 murine cerebrovascular endothelial cells were treated with PEG-HCCs, and 100 μM H2O2 with and without 8 mg/L PEG-HCCs. The cells were incubated overnight and then then detached and counted using a hemocytometer and Calcein AM to label live cells. (Live cell counts n=32).
A similar assay was performed with MB at 0, 5, 10 and 20 μM given 15 minutes after initial exposure to 100 μM H2O2. […] The inclusion of 100 μM H2O2 further reduced survival.

[4] = Deferoxamine degradation in solution by 262 nm UV absorbance; format: physicochemical
Text: FIG. 12 is a graph in which Y-axis is units of deferoxamine remaining in solution through monitoring of the 262 nm absorbance by UV spectroscopy. Trend line 1203 illustrates deferoxamine degradation in PBS solution (DEF/PBS). Trend line 1201 illustrates the degradation of deferoxamine in a PBS solution and dilute PEG-HCC (DEF/PEG). Trend line 1202 illustrates deferoxamine degradation in a PBS that had nitrogen gas bubbled through it (DEF/N2).
An additional advantage of this formulation is that it prevents the oxidative breakdown of the deferoxamine molecule, likely through an interaction with the antioxidant capacity of the parent nanomaterial (FIG. 12). This is a tremendous advantage clinically because current deferoxamine has a short shelf life when prepared for intravenous administration, which could be dramatically extended through this formulation and thereby be useful for settings other than the hospital, such as in a battle field, automobile trauma, or other setting in which tissue injury must be rapidly treated.

[5] = administered intravenously by itself; cited from earlier work

Chain of ferricytochrome C (CytCox) (P99999 whole entry): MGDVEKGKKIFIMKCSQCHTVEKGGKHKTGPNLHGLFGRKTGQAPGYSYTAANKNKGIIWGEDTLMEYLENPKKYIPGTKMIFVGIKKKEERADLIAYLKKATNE

## CN(C)c1ccc2nc3ccc(=[N+](C)C)cc-3sc2c1 [MB, Methylene blue]
[1]
  Vmax: 1.432e-07 M/s
[2]
  Midpoint reduction potential: ~0 mV
[3]
  Cell survival: dose-dependent reduction in cell survival

## CC(=O)N(O)CCCCCNC(=O)CCC(=O)N(O)CCCCCNC(=O)CCC(=O)N(O)CCCCCN [deferoxamine]
[4]; PBS solution with dilute PEG-HCC (DEF/PEG)
  Deferoxamine degradation in solution: no detectable degradation
[4]; PBS with nitrogen gas bubbled through (DEF/N2)
  Deferoxamine degradation in solution: no detectable degradation
[5]
  Half-life in circulation (t1/2): ≈ 0.3 h
